Experimental data: patent publication US7563567B1, “Use of ECIST microarrays in an integrated method for assessing DNA methylation, gene expression and histone acetylation” (The Curators of the Univeristy of Missouri of Columbia, priority 2002, dated 2009)

Legend:
MDA-MB-231 cells [1] = test: ECIST expression microarray, deoxyC-treated vs untreated cells; type: cell-based, human
MDA-MB-231 cells [2] = test: RT-PCR verification of ECIST loci responsive to demethylation; type: cell-based, human
CP70 cells [3] = test: Expression microarray analysis (ECIST panel, triple analysis); type: cell-based, human; conditions: for number of Group 1 (hypermethylated) loci with increased expression: FIG. 20D; for percent of ECIST loci up-regulated 4-fold or greater / total number of ECISTs up-regulated 4-fold or greater: of 1507 loci, DAC 0.5 μM 4 days, TSA 0.5 μM 12 h
CP70 cells [4] = test: Semi-quantitative RT-PCR; type: cell-based, human; conditions: for HSPA.2 expression (RT-PCR): FIG. 21 row 1, no expression in untreated cells; for expression of eight Group 2 loci (RT-PCR): FIGS. 22A, 22B, unmethylated loci
BIK gene = conditions: cited from earlier work
[5] = 0.75 μM, 4 days, among 1,162 ECISTs
[6] = average normalized ratio, 0.75 μM treated vs untreated

For Nc1ncn([C@H]2C[C@H](O)[C@@H](CO)O2)c(=O)n1 [DAC, 5-aza-2′-deoxycytidine], the “number of hypermethylated ECIST loci whose transcripts can be reactivated” value (MDA-MB-231 cells [1]; 0.75 μM) was 30, the “number of hypermethylated ECIST loci whose transcripts could not be reactivated (or up-regulated)” value (MDA-MB-231 cells [1]; 0.75 μM) was 189 and the “number of loci up-regulated in response to demethylation but not associated with CpG island hypermethylation” value (MDA-MB-231 cells [1]; 0.75 μM) was 96. The “down-regulated ECIST loci (SAM analysis)” value (MDA-MB-231 cells [1]; [5]) was “No down-regulated loci were identified”, the “number of statistically significant up-regulated ECIST loci (SAM, false-positive rate 1%)” value (MDA-MB-231 cells [1]; [5]) was 126 and the “Cy5/Cy3 Expression, CpG5B6 (CYP27B1)” value (MDA-MB-231 cells [1]; [6]) was 2.7. For the same compound, the “Cy5/Cy3 Expression, CpG6B6 (dJ631M13.5)” value (MDA-MB-231 cells [1]; [6]) was 2.6, the “Cy5/Cy3 Expression, CpG15E2” value (MDA-MB-231 cells [1]; [6]) was 3.3 and the “Cy5/Cy3 Expression, CpG21G11” value (MDA-MB-231 cells [1]; [6]) was 2.9. For the same compound, the “Cy5/Cy3 Expression, CpG32H12” value (MDA-MB-231 cells [1]; [6]) was 2.6, the “Cy5/Cy3 Expression, CpG65A1 (TNS)” value (MDA-MB-231 cells [1]; [6]) was 4.3 and the “Cy5/Cy3 Expression, CpG65C10 (TBX4)” value (MDA-MB-231 cells [1]; [6]) was 4.7. The “Cy5/Cy3 Expression, DL2F9 (ERCC-1)” value (MDA-MB-231 cells [1]; [6]) was 3.8, the “Cy5/Cy3 Expression, MP1F6 (LOC84661)” value (MDA-MB-231 cells [1]; [6]) was 2.1 and the “Cy5/Cy3 Expression, MP2F1 (H4FJ)” value (MDA-MB-231 cells [1]; [6]) was 3.2. The “Cy5/Cy3 Expression, MP2F10” value (MDA-MB-231 cells [1]; [6]) was 3.2, the “Cy5/Cy3 Expression, PY1H8 (PSMB4)” value (MDA-MB-231 cells [1]; [6]) was 2.1 and the “Cy5/Cy3 Expression, PY2F1 (FLJ10466)” value (MDA-MB-231 cells [1]; [6]) was 3.2. For the same compound, the “Cy5/Cy3 Expression, PY3D3 (EST AI023535)” value (MDA-MB-231 cells [1]; [6]) was 2.4, the “Cy5/Cy3 Expression, PY3D6 (EST BI518683)” value (MDA-MB-231 cells [1]; [6]) was 2.0 and the “Cy5/Cy3 Expression, PY3F2 (HSRN04)” value (MDA-MB-231 cells [1]; [6]) was 2.0. The “Cy5/Cy3 Expression, SC2C3 (EST BE502068)” value (MDA-MB-231 cells [1]; [6]) was 4.9, the “Cy5/Cy3 Expression, SC8F2 (RPS16)” value (MDA-MB-231 cells [1]; [6]) was 2.0 and the “Cy5/Cy3 Expression, SC12A2 (SAAS)” value (MDA-MB-231 cells [1]; [6]) was 2.2. The “Cy5/Cy3 Expression, SC13D6 (EST183864)” value (MDA-MB-231 cells [1]; [6]) was 2.1, the “Cy5/Cy3 Expression, SC15E7” value (MDA-MB-231 cells [1]; [6]) was 4.0 and the “Cy5/Cy3 Expression, SC15H6 (H2BFR)” value (MDA-MB-231 cells [1]; [6]) was 2.6. The “Cy5/Cy3 Expression, SC19F1 (EST BE838797)” value (MDA-MB-231 cells [1]; [6]) was 2.7, the “Cy5/Cy3 Expression, SC20G3 (HOXD3)” value (MDA-MB-231 cells [1]; [6]) was 2.3 and the “Cy5/Cy3 Expression, SC21A8 (U3B2)” value (MDA-MB-231 cells [1]; [6]) was 3.2. For the same compound, the “Cy5/Cy3 Expression, SC21G11 (HSPA2)” value (MDA-MB-231 cells [1]; [6]) was 5.4, the “Cy5/Cy3 Expression, SC40C8 (H2BFG)” value (MDA-MB-231 cells [1]; [6]) was 2.7 and the “Cy5/Cy3 Expression, SC77F6 (TTF-1)” value (MDA-MB-231 cells [1]; [6]) was 3.8. The “Cy5/Cy3 Expression, SC87E7 (EST AA365852)” value (MDA-MB-231 cells [1]; [6]) was 2.4, the “Cy5/Cy3 Expression, SC89F2 (HAGE)” value (MDA-MB-231 cells [1]; [6]) was 14.6 and the “expression of CYP27B1, HSPA2, TTF-1, FLJ10466 and EST183864 by RT-PCR” value (MDA-MB-231 cells [2]; 0.75 μM treated vs untreated, FIG. 17A) was “reactivated”. For the same compound, the “expression levels of CpG12F10, MP2A3 and MP3D7 by RT-PCR” value (MDA-MB-231 cells [2]; treated relative to untreated cells, loci not hypermethylated, FIG. 17B) was “increased”, the “expression of Group 2a genes (unmethylated promoters)” value (CP70 cells [3]) was “not by DAC alone” and the “number of Group 1 (hypermethylated) loci with increased expression” value (CP70 cells [3]) was 11. The “percent of ECIST loci up-regulated 4-fold or greater” value (CP70 cells [3]) was 1.9%, the “total number of ECISTs up-regulated 4-fold or greater” value (CP70 cells [3]) was 29 and the “HSPA.2 expression (RT-PCR)” value (CP70 cells [4]) was “increased”. For the same compound, the “expression of eight Group 2 loci (RT-PCR)” value (CP70 cells [4]) was “Increased expression of some of these loci”, the “time by which BIK expression returned to control levels” value (BIK gene; human lung cancer cell line, after treatment) was at most 72 h and the “induction of the apoptosis promoting factor BIK” value (BIK gene; human lung cancer cell line) was “early induction”.
For CC(/C=C/C(=O)NO)=C\[C@@H](C)C(=O)c1ccc(N(C)C)cc1 [TSA, trichostatin A], the “expression of Group 2a genes (unmethylated promoters)” value (CP70 cells [3]) was “increased expression”, the “number of Group 1 (hypermethylated) loci with increased expression” value (CP70 cells [3]) was “No significant change in expression” and the “percent of ECIST loci up-regulated 4-fold or greater” value (CP70 cells [3]) was 1.1%. For the same compound, the “total number of ECISTs up-regulated 4-fold or greater” value (CP70 cells [3]) was 17, the “HSPA.2 expression (RT-PCR)” value (CP70 cells [4]) was “remained unchanged” and the “expression of eight Group 2 loci (RT-PCR)” value (CP70 cells [4]) was “Increased expression of some of these loci”. The “induction of the BIK gene” value (BIK gene; Suzuki et al., cell line not stated) was “induced in a methylation-independent manner”.
